Where only a bound is given, the exact number is not on record here.

For series [1], the target named is T1, Serine/threonine-protein kinase 17A (Homo sapiens, UniProt Q9UEE5).
T1 sequence (Q9UEE5 whole entry): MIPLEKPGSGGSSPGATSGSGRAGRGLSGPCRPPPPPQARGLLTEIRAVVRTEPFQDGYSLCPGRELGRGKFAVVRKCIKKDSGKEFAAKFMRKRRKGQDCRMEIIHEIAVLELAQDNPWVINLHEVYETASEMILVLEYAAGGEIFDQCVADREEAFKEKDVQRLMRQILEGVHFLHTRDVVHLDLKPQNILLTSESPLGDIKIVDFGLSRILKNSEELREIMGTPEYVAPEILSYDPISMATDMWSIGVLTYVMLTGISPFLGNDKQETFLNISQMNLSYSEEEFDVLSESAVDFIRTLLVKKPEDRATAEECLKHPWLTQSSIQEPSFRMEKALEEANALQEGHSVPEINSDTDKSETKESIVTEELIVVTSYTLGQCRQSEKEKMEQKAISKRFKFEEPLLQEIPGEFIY
Nature of the series: Inhibition of STK17A (unknown origin) in presence of ATP.

The target of series [2] is T2, Myosin light chain kinase family member 4 (Homo sapiens, UniProt Q86YV6).
T2 sequence (Q86YV6 whole entry): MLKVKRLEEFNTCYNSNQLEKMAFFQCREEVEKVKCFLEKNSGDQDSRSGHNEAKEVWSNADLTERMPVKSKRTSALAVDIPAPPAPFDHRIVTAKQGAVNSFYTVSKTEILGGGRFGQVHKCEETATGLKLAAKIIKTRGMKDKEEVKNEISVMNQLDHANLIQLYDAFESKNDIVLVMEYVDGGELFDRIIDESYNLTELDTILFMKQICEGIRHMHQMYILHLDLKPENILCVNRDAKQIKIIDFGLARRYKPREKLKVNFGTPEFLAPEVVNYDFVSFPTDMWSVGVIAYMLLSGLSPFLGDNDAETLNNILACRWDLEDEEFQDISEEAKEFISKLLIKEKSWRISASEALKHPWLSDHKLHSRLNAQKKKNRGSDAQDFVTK
The series can be described thus: Inhibition of MYLK4 (unknown origin) in presence of ATP.

Series [3] addresses T3, CYP1A2 (Homo sapiens, UniProt P05177).
T3 sequence (P05177 whole entry): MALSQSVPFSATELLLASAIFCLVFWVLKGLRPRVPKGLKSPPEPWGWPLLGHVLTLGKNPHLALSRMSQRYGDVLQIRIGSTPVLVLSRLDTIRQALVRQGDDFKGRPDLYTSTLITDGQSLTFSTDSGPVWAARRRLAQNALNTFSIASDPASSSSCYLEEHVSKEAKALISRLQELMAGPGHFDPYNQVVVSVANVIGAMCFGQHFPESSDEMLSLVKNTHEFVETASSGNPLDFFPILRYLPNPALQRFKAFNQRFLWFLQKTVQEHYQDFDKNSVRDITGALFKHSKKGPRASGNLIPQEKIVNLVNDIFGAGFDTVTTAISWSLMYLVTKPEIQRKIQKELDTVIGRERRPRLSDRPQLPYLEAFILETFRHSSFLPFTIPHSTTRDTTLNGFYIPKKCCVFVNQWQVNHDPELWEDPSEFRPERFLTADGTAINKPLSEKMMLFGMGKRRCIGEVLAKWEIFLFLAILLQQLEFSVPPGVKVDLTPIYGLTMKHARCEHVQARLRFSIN
Nature of the series: Inhibition of CYP1A2 (unknown origin) using phenacetin as substrate at 10 uM by cocktail based assay relative to control. The format is ADME. The conditions noted are these: probe phenacetin.

Series [4] concerns the target CYP2C9 (Homo sapiens, UniProt P11712). The series can be described thus: Inhibition of CYP2C9 (unknown origin) using tolbutamide as substrate at 10 uM by cocktail based assay relative to control. The conditions noted are these: probe tolbutamide. It counts as ADME.
Series [5] concerns the target CYP2D6 (Homo sapiens, UniProt P10635). The series can be described thus: Inhibition of CYP2D6 (unknown origin) using bufuralol as substrate at 10 uM by cocktail based assay relative to control. It counts as ADME. The note with it: probe bufuralol.
The target in series [6] is CYP3A4 (Homo sapiens, UniProt P08684). Nature of the series: Inhibition of CYP3A4 (unknown origin) using midazolam as substrate at 10 uM by cocktail based assay relative to control. It counts as ADME. The note with it: probe midazolam.
A short description of series [7]: Microsomal stability in human liver microsomes assessed as half life. It counts as ADME, Microsome. Background: Microsomes from liver hold many membrane-bound enzymes, among them those of drug oxidation.
Series [8] in a line: Microsomal stability in mouse liver microsomes assessed as half life. It counts as ADME, Microsome.
The target of series [9] is T4, Dual specificity protein kinase CLK4 (Homo sapiens, UniProt Q9HAZ1). Nature of the series: Inhibition of CLK4 (unknown origin) in presence of ATP.
Target sequence in this assay (Q9HAZ1 whole entry): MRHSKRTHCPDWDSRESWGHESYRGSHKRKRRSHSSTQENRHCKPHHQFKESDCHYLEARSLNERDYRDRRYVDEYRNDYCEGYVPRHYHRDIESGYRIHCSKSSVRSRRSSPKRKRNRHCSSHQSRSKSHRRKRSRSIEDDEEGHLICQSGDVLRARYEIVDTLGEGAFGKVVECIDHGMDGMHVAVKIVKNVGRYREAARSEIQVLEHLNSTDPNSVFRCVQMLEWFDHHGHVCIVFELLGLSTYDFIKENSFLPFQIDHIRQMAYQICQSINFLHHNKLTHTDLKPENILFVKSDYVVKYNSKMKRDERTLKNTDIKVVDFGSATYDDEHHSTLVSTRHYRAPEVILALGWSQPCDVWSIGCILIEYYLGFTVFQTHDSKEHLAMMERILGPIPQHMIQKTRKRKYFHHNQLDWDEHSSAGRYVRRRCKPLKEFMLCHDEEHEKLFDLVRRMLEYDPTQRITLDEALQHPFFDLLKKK
Series [10] relates to MOLM-13. The series can be described thus: Antiproliferative activity against human MOLM-13 cells assessed as inhibition of cell growth incubated for 72 hrs by Cell Titer-Glo luminescence assay. It counts as functional, cell-based. The note with it: MOLM-13, 72 h. In general terms: In ATP-based viability assays light output follows the ATP content of the culture.
The test system of series [11] is HEL. Nature of the series: Antiproliferative activity against human HEL cells assessed as inhibition of cell growth incubated for 72 hrs by Cell Titer-Glo luminescence assay. It counts as functional, cell-based.
Series [12] has as its system Kasumi 1. Nature of the series: Antiproliferative activity against human Kasumi 1 cells assessed as inhibition of cell growth incubated for 72 hrs by Cell Titer-Glo luminescence assay. The note with it: Kasumi 1, 72 h. It counts as functional, cell-based.
Series [13] in a line: Antiproliferative activity against human HEK293T cells assessed as inhibition of cell growth incubated for 72 hrs by Cell Titer-Glo luminescence assay. It counts as toxicity, cell-based, HEK-293T.
Series [14] deals with Inhibitor of nuclear factor kappa-B kinase subunit epsilon (Homo sapiens) (UniProt Q14164). Nature of the series: Inhibition of IKKepsilon (unknown origin) at 100 nM in presence of ATP relative to control.
Series [15] has as its target Dual specificity protein kinase CLK2 (Homo sapiens) (UniProt P49760). The series can be described thus: Inhibition of CLK2 (unknown origin) at 100 nM in presence of ATP relative to control.
For series [16], the target named is Serine/threonine-protein kinase TBK1 (Homo sapiens, UniProt Q9UHD2). Nature of the series: Inhibition of TBK1 (unknown origin) in presence of ATP.
Series [17] addresses Myosin light chain kinase family member 4 (Homo sapiens) (UniProt Q86YV6). The note with it: dose 100.0 nM.
Description: Inhibition of MYLK4 (unknown origin) at 100 nM in presence of ATP relative to control
Series [18] concerns the target Serine/threonine-protein kinase 17A (Homo sapiens) (UniProt Q9UEE5). The conditions noted are these: dose 100.0 nM.
Description: Inhibition of STK17A (unknown origin) at 100 nM in presence of ATP relative to control
Series [19] addresses Serine/threonine-protein kinase TBK1 (Homo sapiens) (UniProt Q9UHD2). The conditions noted are these: dose 100.0 nM.
Description: Inhibition of TBK1 (unknown origin) at 100 nM in presence of ATP relative to control
In series [20] the target is T4, Dual specificity protein kinase CLK4. The conditions noted are these: dose 100.0 nM.
Target sequence in this assay (Q9HAZ1 whole entry, looked up): as the sequence (Q9HAZ1 whole entry) above
Description: Inhibition of CLK4 (unknown origin) at 100 nM in presence of ATP relative to control

CYP2D6, sequence (P10635 whole entry): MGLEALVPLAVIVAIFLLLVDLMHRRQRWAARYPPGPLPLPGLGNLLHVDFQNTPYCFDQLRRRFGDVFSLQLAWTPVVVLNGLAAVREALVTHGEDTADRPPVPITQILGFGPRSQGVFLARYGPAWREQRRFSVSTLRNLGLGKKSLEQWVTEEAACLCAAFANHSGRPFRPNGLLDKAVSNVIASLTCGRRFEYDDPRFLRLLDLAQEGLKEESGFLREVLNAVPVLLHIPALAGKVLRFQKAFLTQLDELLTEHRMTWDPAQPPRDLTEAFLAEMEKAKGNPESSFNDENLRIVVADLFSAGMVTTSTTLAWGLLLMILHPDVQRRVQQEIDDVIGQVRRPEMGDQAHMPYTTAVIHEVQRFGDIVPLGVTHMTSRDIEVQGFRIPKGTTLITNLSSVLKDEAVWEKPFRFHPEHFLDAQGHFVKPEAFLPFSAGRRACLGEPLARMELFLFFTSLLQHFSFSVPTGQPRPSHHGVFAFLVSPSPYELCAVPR
CYP2C9, sequence (P11712 whole entry): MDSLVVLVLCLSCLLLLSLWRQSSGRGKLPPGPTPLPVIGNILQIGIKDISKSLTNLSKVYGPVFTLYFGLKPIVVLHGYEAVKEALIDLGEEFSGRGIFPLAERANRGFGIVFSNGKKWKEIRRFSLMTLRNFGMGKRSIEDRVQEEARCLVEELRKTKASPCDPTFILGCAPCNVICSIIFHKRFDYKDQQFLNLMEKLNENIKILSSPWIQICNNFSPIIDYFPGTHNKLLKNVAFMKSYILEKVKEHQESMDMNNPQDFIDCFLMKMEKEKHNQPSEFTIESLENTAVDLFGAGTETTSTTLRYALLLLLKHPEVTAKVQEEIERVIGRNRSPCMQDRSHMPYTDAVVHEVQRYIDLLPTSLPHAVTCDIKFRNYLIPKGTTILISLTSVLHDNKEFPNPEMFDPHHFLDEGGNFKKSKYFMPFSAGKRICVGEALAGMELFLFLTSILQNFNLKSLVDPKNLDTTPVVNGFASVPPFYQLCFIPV
CYP3A4, sequence (P08684 whole entry): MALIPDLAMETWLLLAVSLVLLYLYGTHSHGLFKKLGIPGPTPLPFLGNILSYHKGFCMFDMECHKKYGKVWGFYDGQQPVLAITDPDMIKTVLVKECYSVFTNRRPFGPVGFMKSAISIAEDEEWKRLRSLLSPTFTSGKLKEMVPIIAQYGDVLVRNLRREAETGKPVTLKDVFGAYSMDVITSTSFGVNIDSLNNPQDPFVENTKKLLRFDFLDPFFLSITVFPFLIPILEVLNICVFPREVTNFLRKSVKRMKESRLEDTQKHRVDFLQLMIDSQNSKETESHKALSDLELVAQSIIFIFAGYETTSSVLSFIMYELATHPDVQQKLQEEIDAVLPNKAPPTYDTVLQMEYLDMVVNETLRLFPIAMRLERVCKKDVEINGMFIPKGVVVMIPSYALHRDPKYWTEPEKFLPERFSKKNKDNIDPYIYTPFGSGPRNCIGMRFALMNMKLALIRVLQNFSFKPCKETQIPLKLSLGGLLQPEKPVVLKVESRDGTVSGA
Serine/threonine-protein kinase TBK1 (Homo sapiens), sequence (Q9UHD2 whole entry): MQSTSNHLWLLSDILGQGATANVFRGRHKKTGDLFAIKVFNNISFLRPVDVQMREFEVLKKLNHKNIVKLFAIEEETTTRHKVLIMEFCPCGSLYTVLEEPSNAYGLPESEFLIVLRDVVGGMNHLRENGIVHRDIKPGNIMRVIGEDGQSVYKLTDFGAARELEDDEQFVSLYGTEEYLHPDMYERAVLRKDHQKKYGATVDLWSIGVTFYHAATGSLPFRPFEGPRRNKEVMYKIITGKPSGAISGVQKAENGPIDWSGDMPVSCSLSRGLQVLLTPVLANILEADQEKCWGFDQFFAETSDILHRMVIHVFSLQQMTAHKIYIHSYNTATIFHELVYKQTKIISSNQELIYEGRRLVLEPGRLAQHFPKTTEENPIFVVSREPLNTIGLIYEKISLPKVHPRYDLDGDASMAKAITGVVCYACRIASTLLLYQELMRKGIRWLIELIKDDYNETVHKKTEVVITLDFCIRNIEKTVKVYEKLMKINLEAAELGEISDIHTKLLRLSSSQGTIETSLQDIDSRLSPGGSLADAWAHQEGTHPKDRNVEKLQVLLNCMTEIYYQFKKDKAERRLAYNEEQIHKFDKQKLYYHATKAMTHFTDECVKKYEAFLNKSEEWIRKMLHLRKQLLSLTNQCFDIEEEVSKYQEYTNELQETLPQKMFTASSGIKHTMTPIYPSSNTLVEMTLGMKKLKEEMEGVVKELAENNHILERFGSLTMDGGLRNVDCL
Serine/threonine-protein kinase TBK1, sequence (Q9UHD2 whole entry): as above
Inhibitor of nuclear factor kappa-B kinase subunit epsilon (Homo sapiens), sequence (Q14164 whole entry): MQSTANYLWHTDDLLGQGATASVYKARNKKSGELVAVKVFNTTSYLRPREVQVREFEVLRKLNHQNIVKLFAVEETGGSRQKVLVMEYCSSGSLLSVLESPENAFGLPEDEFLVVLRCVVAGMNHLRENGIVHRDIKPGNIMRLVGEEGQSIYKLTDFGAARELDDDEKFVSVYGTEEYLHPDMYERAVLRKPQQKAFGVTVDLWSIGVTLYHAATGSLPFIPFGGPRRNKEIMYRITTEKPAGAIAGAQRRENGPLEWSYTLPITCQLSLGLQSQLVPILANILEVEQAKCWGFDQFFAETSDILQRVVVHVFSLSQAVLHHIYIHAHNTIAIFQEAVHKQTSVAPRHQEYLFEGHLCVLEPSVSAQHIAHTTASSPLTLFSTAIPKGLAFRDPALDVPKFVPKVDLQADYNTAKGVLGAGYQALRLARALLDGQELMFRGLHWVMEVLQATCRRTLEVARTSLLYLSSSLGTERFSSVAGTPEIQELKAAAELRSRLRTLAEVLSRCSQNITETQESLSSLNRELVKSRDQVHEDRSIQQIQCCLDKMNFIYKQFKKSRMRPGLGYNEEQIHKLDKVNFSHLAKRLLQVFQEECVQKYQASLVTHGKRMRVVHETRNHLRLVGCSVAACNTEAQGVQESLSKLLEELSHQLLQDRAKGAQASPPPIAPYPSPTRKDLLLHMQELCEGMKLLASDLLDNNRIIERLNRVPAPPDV
Dual specificity protein kinase CLK2 (Homo sapiens), sequence (P49760 whole entry, looked up): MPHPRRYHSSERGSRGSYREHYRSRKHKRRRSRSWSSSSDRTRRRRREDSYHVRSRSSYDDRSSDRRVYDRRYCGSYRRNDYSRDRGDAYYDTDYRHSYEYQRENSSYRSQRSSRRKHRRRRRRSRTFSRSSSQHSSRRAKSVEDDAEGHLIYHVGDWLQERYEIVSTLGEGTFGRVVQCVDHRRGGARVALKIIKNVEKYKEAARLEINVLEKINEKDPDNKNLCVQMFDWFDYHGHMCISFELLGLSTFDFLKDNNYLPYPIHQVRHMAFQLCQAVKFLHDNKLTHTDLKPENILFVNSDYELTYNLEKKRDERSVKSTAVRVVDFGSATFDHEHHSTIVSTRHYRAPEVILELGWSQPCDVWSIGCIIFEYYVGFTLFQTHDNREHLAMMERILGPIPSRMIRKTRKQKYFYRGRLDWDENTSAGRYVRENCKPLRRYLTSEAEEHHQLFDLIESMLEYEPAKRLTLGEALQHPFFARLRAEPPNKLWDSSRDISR

As a reminder, the IC50 is the concentration that gives 50% inhibition. The term inhibition denotes the relative decrease from the control value, in per cent. The half-life is how long it takes for the measured level to halve. For `c1cc(-c2ccc3nc(N4CCCC4)ncc3c2)nc(Nc2cnn(C3CCNCC3)c2)n1`, the results for the IC50 in [1] and in [2] were 0.02 µM and 0.006 µM, respectively. Moreover, the inhibition at 10 µM in series [3] was 52%; in series [4], < 10%; in series [5] it was 5%; in series [6], < 10%. Moreover, the half-life in [7] is 23 min; in [8] it was > 100 min.
For the compound `CN1CCN(c2ccc(Nc3nccc(-c4ccc5nc(N6CCCC6)ncc5c4)n3)cc2)CC1`, the IC50 in series [1] was determined as 0.051 µM.
For the compound `O=C(NC1CCNCC1)c1ccc(Nc2nccc(-c3ccc4nc(N5CCCC5)ncc4c3)n2)cc1`, the IC50 in series [1] was determined as 0.316 µM.
In the case of `OCCN1CCC(c2ccc(Nc3nccc(-c4ccc5nc(N6C[C@@H]7C[C@H]6CO7)ncc5c4)n3)cn2)CC1`, the IC50 was 0.017 µM in series [1], 0.04 µM in [2] and 1.12 µM in [9]. Moreover, the inhibition at 10 µM in [3], in series [4], in [5] and in series [6] was < 10% each time. Further, the half-life in series [7] came to 20 min; in [8], 69 min.
`c1cc(-c2ccc3nc(N4CCCC4)ncc3c2)nc(Nc2ccc(N3CCNCC3)cc2)n1`: the values for the IC50 in series [1] and in series [2] were 0.055 µM and 0.027 µM, respectively. The inhibition at 10 µM came to 7% in [3], 23% in series [4], 2% in series [5] and 22% in series [6]. Besides, the half-life in series [7] was > 100 min; in series [8] it was 9 min.
With `CC(C)NC(=O)c1ccc(Nc2ncc(F)c(-c3ccc4nc(N5CCCC5)ncc4c3)n2)cc1`, the values for the IC50 in series [1], in series [2] and in [9] were 0.025 µM, > 1 µM and > 10 µM, respectively. Also, the inhibition at 10 µM in series [3], in [4], in [5] and in series [6] was < 10% throughout. Moreover, the half-life in series [7] was 44 min; in series [8], 22 min.
For the compound `COC(=O)N1CCC(c2ccc(Nc3nccc(-c4ccc5nc(N6CCCC6)ncc5c4)n3)cn2)CC1`, in series [1], the IC50 was found to be 0.066 µM.
For the compound `CC(C)NC(=O)c1cccc(Nc2nccc(-c3ccc4nc(N5CCCC5)ncc4c3)n2)c1`, the IC50 in series [1] was determined as 0.144 µM.
`COC(=O)N1CCC(c2ccc(Nc3nccc(-c4ccc5nc(N6C[C@@H]7C[C@H]6CO7)ncc5c4)n3)cn2)CC1`: the IC50 in series [1] is 0.029 µM.
As to `c1cc(-c2ccc3nc(N4CCOCC4)ncc3c2)nc(Nc2ccc(N3CCNCC3)cc2)n1`, the IC50 in series [1] worked out at 0.02 µM; in series [2], 0.004 µM. Further, the inhibition at 10 µM in [3] is < 10%; in series [4], 7%; in series [5], < 10%; in series [6], 11%. Moreover, the half-life in series [7] was 12 min; in [8], 16 min.
Consider `OCCN1CCC(n2cc(Nc3ncc(F)c(-c4ccc5nc(N6CCOCC6)ncc5c4)n3)cn2)CC1`, for which the half-maximal inhibitory concentration (IC50) in series [1] stood at 0.021 µM; in series [2], 0.017 µM; in series [10], 1.96 µM; in [11] it was 2.96 µM; in series [12] it was 0.76 µM. Also, the inhibition at 10 µM in [3], in series [4], in series [5] and in series [6] was < 10% in each case. Besides, the values for the half-life in [7] and in series [8] were 97 min and 83 min, respectively. The IC50 at 72 h in series [13] turned out to be 16.2 µM.
Take `c1cc(-c2ccc3nc(N4CCCC4)ncc3c2)nc(Nc2ccc(N3CCNCC3)nc2)n1`: the IC50 in series [1] was 0.018 µM; in [2], 0.002 µM; in series [9] it was 0.124 µM; in series [16] it was 0.135 µM; in series [10], 1.34 µM; in series [11], 1.93 µM. The IC50 in series [12] was 1.19 µM. In addition, the inhibition was determined as 45% in [14]; 50% in [15]; 95% in series [17]; 75% in [18]; 45% in series [19]; 50% in [20]. The IC50 at 72 h in series [13] was 11.7 µM.
Consider `OCCN1C[C@@H]2C[C@H]1CN2c1ccc(Nc2ncc(F)c(-c3ccc4nc(N5CCCC5)ncc4c3)n2)cn1`, for which the IC50 turned out to be 0.048 µM in series [1], 0.013 µM in [2] and 0.16 µM in [9].
Regarding `c1cc(-c2ccc3nc(N4CCCC4)ncc3c2)nc(Nc2ccc(N3CCOCC3)cc2)n1`, the figures for the IC50 in series [1] and in [2] were 0.043 µM and 0.046 µM, respectively. Further, the inhibition at 10 µM is < 10% in series [3], 14% in [4], < 10% in series [5] and 22% in [6]. The half-life in series [7] is 69 min; in series [8] it was 35 min.
Turning to `CC(C)NC(=O)c1ccc(Nc2nccc(-c3ccc4nc(N5CCCC5)ncc4c3)n2)cn1`, the IC50 in series [1] is 0.012 µM; in series [2], 0.085 µM; in series [9] it was > 10 µM. Further, the inhibition at 10 µM in series [3] came out at 22%; in series [4] it was 39%; in series [5], 16%; in series [6], 25%. Also, the results for the half-life in [7] and in [8] were 61 min and 92 min, respectively.
With `CC(C)NC(=O)c1ccc(Nc2nccc(-c3ccc4nc(N5CCOCC5)ncc4c3)n2)cc1`, the IC50 in series [1] is 0.02 µM; in [2] it was 0.068 µM. Besides, the inhibition at 10 µM was 12% in series [3], < 10% in series [4], 1% in series [5] and < 10% in [6]. Besides, the half-life in series [7] was 16 min; in series [8], 59 min.
In the case of `c1cc(-c2ccc3nc(N4CCCC4)ncc3c2)nc(Nc2ccc(OC3CCNCC3)cc2)n1`, the IC50 in series [1] is > 10 µM.
For the compound `c1cc(-c2ccc3nc(N4CCOCC4)ncc3c2)nc(Nc2cnn(C3CCNCC3)c2)n1`, the IC50 in [1] is 0.019 µM; in series [2], 0.006 µM. Besides, the inhibition at 10 µM in [3] was 11%; in [4], < 10%; in series [5] it was < 10%; in series [6] it was < 10%. The half-life was 84 min in [7] and 62 min in series [8].

Source of the values: ChEMBL document CHEMBL5532747, “Potent, Selective, and Orally Bioavailable Quinazoline-Based STK17A/B Dual Inhibitors” (ACS Med Chem Lett, 2024).
